# Publication PMC12275099, “VX-445 (elexacaftor) inhibits chloride secretion across human bronchial epithelial cells by directly blocking KCa3.1 channels” (PNAS Nexus, 2025)
# Tested on: corrected F508del CFTR-expressing HBEs
# Test: Ussing chamber Isc, forskolin plus VX-770-stimulated Cl- secretion
# Format: cell-based, human
# Method: It has been proposed that, similar to potentiation of basolateral KCa3.1, potentiation of apical BKCa would further stimulate Cl^− secretion across HBEs by increasing the electrochemical driving force for Cl^− exit across the apical membrane ([18], [19]). To assess this possibility, we determined whether acute addition of VX-445 affects forskolin-mediated Cl^− secretion across primary WT CFTR-expressing HBEs, using Isc measurements. […] Note, as VX-445 is a lipophilic compound, it was added to both apical and basolateral membranes. The addition of bumetanide (20 µM) further reduced Isc, as expected. […] In a total of nine filters from three separate donors, VX-445 inhibited an average of 47 ± 2% of the current, subsequent to VX-661 (P < 0.01). […] The current observed following forskolin stimulation consists of both bumetanide-sensitive Cl^− secretion and bumetanide-insensitive HCO3− secretion ([32–34]). Thus, we determined whether VX-445 would inhibit the remaining current subsequent to bumetanide. […] Given the surprising inhibition of Cl^− secretion observed, we chose to stimulate Cl^− secretion via an alternate mechanism and assess the effect of VX-445. […] Thus, we determined the effect of VX-445 on the DCEBIO-induced Cl^− secretory response. […] We next determined whether VX-445 would similarly decrease the forskolin-stimulated transepithelial Cl^− currents in corrected F508del HBEs. […]
smiles,measurement,setting,value
"Cc1nn(C)cc1S(=O)(=O)NC(=O)c1ccc(-n2ccc(OCC(C)(C)C(F)(F)F)n2)nc1N1C[C@@H](C)CC1(C)C [VX-445, elexacaftor]",Isc in the presence of VX-445,"Fig 1J, single filters, VX-445 10 µM after forskolin/VX-770",10
same,decrease in forskolin plus VX-770-stimulated Isc,"acute VX-445 10 µM, F508del corrected overnight with VX-445 1 µM plus VX-661 3 µM, 35 filters from five donors",64 ± 2%
